Experiment: xn = mol fraction of the nth substance listed

CCCCOCCOCCOCCO + ClC(Cl)=C(Cl)Cl
298.15 K, 101.33 kPa
Settings | viscosity [mPa·s]
x2 = 0.0067 | 0.864
x2 = 0.0173 | 0.895
x2 = 0.0345 | 0.95
x2 = 0.0476 | 0.995
x2 = 0.06 | 1.04
x2 = 0.0815 | 1.124
x2 = 0.1063 | 1.227
x2 = 0.1471 | 1.408
x2 = 0.184 | 1.601
x2 = 0.2264 | 1.828
x2 = 0.2617 | 2.046
x2 = 0.3067 | 2.351
x2 = 0.348 | 2.66
x2 = 0.377 | 2.889
x2 = 0.415 | 3.192
x2 = 0.4588 | 3.55
x2 = 0.491 | 3.816
x2 = 0.5348 | 4.198
x2 = 0.576 | 4.576
x2 = 0.6201 | 4.978
x2 = 0.6577 | 5.357
x2 = 0.7089 | 5.881
x2 = 0.7558 | 6.354
x2 = 0.8037 | 6.872
x2 = 0.8566 | 7.45
x2 = 0.9013 | 7.964
x2 = 0.9283 | 8.26
x2 = 0.9521 | 8.528
x2 = 0.9738 | 8.793

C[N+](=O)[O-] + Cc1ccc(C)cc1
293.15 K, 101.33 kPa
Settings | viscosity [mPa·s]
x1 = 0.1151 | 0.632
x1 = 0.2724 | 0.628
x1 = 0.4256 | 0.626
x1 = 0.481 | 0.625
x1 = 0.6051 | 0.625
x1 = 0.6915 | 0.626
x1 = 0.794 | 0.627
x1 = 0.8837 | 0.632

ClC1CCCCC1 + CC1CCCO1
viscosity [mPa·s], 101.3 kPa
Settings | x2 = 0.0984 | x2 = 0.1994 | x2 = 0.2986 | x2 = 0.4009 | x2 = 0.4991 | x2 = 0.5995 | x2 = 0.701 | x2 = 0.802 | x2 = 0.8995
298.15 K | 1.367 | 1.195 | 1.055 | 0.9325 | 0.8311 | 0.742 | 0.6638 | 0.5963 | 0.5378
313.15 K | 1.075 | 0.9535 | 0.8519 | 0.7611 | 0.6848 | 0.6167 | 0.5561 | 0.5018 | 0.4546

Brc1ccc(Br)cc1 + CC(C)O
viscosity [mPa·s], 101 kPa
Settings | 298.15 K | 303.15 K | 308.15 K | 313.15 K | 318.15 K
x1 = 0.02851 | 1.945 | 1.682 | 1.476 | 1.307 | 1.16
x1 = 0.04384 | – | 1.663 | 1.47 | 1.291 | 1.142

Cc1cccc(O)c1 + CC(=O)O
viscosity [mPa·s], 101 kPa
Settings | x2 = 0.1684 | x2 = 0.313 | x2 = 0.4385 | x2 = 0.5485 | x2 = 0.6457 | x2 = 0.7321 | x2 = 0.8096 | x2 = 0.8794 | x2 = 0.9425
298.15 K | 8.835 | 6.522 | 5.086 | 4.131 | 3.438 | 2.895 | 2.425 | 1.996 | 1.602
308.15 K | 5.453 | 4.462 | 3.486 | 3.298 | 2.87 | 2.483 | 2.143 | 1.811 | 1.437
318.15 K | 4.444 | 3.818 | 3.302 | 2.942 | 2.618 | 2.31 | 1.945 | 1.625 | 1.22

Cc1cccc(O)c1 + c1ccncc1
viscosity [mPa·s], 101 kPa
Settings | x1 = 0.1071 | x1 = 0.2168 | x1 = 0.3407 | x1 = 0.3927 | x1 = 0.4754 | x1 = 0.542 | x1 = 0.6374 | x1 = 0.6973 | x1 = 0.8077 | x1 = 0.8862
293.15 K | 1.228 | 1.77 | 2.54 | 3.085 | 4.25 | 5.585 | 8.16 | 9.98 | 13.08 | 14.81
303.15 K | 1.098 | 1.461 | 2.125 | 2.51 | 3.35 | 4.175 | 5.57 | 6.52 | 7.885 | 8.64
313.15 K | 0.931 | 1.24 | 1.732 | 2.022 | 2.605 | 3.15 | 3.995 | 4.565 | 5.255 | 5.59

C[N+](=O)[O-] + CS(C)=O
viscosity [mPa·s], 101.3 kPa
Settings | x2 = 0.1135 | x2 = 0.117 | x2 = 0.2337 | x2 = 0.2468 | x2 = 0.432 | x2 = 0.4324 | x2 = 0.5837 | x2 = 0.5943 | x2 = 0.812 | x2 = 0.8156
298 K | 0.726 | – | 0.823 | – | 1.014 | – | – | 1.229 | 1.613 | –
318 K | – | 0.5753 | – | 0.6471 | – | 0.7717 | 0.8878 | – | – | 1.12

CCCC[n+]1cc[nH]c1.O=S(=O)([N-]S(=O)(=O)C(F)(F)F)C(F)(F)F + N
Settings | viscosity [mPa·s]
313.2 K, 101.33 kPa, x2 = 0.7076 | 9.866

[Br-].[Br-].[Br-].[Sb+3] + CNc1ccccc1
323.15 K, 101 kPa
Settings | viscosity [mPa·s]
x1 = 0.25 | 21.03
x1 = 0.333 | 107.7
x1 = 0.4 | 507
x1 = 0.45 | 1423
x1 = 0.5 | 2867
x1 = 0.53 | 3472
x1 = 0.55 | 3692
x1 = 0.57 | 3331
x1 = 0.6 | 2686
x1 = 0.65 | 1275

C[N+](=O)[O-] + CC(C)=O
298.15 K, 101 kPa
Settings | viscosity [mPa·s]
x1 = 0.1326 | 0.356
x1 = 0.2566 | 0.3972
x1 = 0.3714 | 0.4352
x1 = 0.479 | 0.4701
x1 = 0.5797 | 0.5032
x1 = 0.6739 | 0.5325
x1 = 0.7631 | 0.5603
x1 = 0.8465 | 0.5855
x1 = 0.9257 | 0.6101

CC(=O)c1ccc(C)cc1 + CC#N
308.15 K, 101 kPa
Settings | viscosity [mPa·s]
x1 = 0.0872 | 0.3857
x1 = 0.1449 | 0.4411
x1 = 0.2088 | 0.5094
x1 = 0.2823 | 0.5871
x1 = 0.3756 | 0.6989
x1 = 0.4771 | 0.826
x1 = 0.6125 | 1.001
x1 = 0.7811 | 1.235
x1 = 0.9146 | 1.454

C[Si]1(C)O[Si](C)(C)O[Si](C)(C)O[Si](C)(C)O[Si](C)(C)O[Si](C)(C)O1 + C[Si](C)(C)O[Si](C)(C)O[Si](C)(C)O[Si](C)(C)C
Settings | viscosity [mPa·s]
298.15 K, 101 kPa, x2 = 0.457 | 3.47

CCCCC(CC)COP(=O)(O)OCC(CC)CCCC (centres undefined) + O=[N+]([O-])c1ccccc1
Settings | viscosity [mPa·s]
303.15 K, 100 kPa, x1 = 0.9387 | 17.75

Cc1cccc(O)c1 + Cc1ccccc1
308.15 K, 101 kPa
Settings | viscosity [mPa·s]
x1 = 0.0892 | 0.5693
x1 = 0.198 | 0.7009
x1 = 0.3227 | 0.9138
x1 = 0.4371 | 1.215
x1 = 0.5644 | 1.71
x1 = 0.6801 | 2.44
x1 = 0.7905 | 3.416
x1 = 0.8866 | 4.871
x1 = 0.9596 | 6.414

N + O=[N+]([O-])[O-].O=[N+]([O-])[O-].[Ca+2]
293.15 K, 101 kPa
Settings | viscosity [mPa·s]
x2 = 0.01 | 0.17
x2 = 0.02 | 0.238
x2 = 0.042 | 0.355
x2 = 0.087 | 0.783

CC(=O)c1ccc(C)cc1 + CCNc1ccccc1
303.15 K, 100 kPa
Settings | viscosity [mPa·s]
x2 = 0.0838 | 1.587
x2 = 0.1427 | 1.592
x2 = 0.2179 | 1.601
x2 = 0.2904 | 1.608
x2 = 0.3608 | 1.616
x2 = 0.4284 | 1.625
x2 = 0.4942 | 1.635
x2 = 0.5577 | 1.645
x2 = 0.6194 | 1.656
x2 = 0.6889 | 1.67
x2 = 0.7467 | 1.683
x2 = 0.8128 | 1.697
x2 = 0.9072 | 1.718

CCCCOC(=O)C(C)O (centres undefined) + CC(O)CO
101 kPa
Settings | viscosity [mPa·s]
293.15 K, x1 = 0.3 | 17.35
293.15 K, x1 = 0.6996 | 6.325
303.15 K, x1 = 0.0999 | 21.45
308.15 K, x1 = 0.3999 | 6.935
323.15 K, x1 = 0.2 | 6.665
323.15 K, x1 = 0.4998 | 3.435
